In US7820811B2, “Pro-drugs of adenosine receptor agonists” (CBT Development Limited, priority 2006, dated 2010):

Key:
[1] = oral administration; cited from earlier work
[2] = system: rat adjuvant model of arthritis; assay: rat adjuvant model of arthritis, analgesic relief; assay type: in vivo
adenosine A2A receptor = adenosine A2A receptor (UniProt P30543); assay: EC50 at the adenosine A2A receptor; assay type: biochemical
Description: For the avoidance of doubt, the EC50 value of a compound is defined herein as the concentration of the compound that provokes a receptor response halfway between the baseline receptor response and the maximum receptor response (as determined, for example, using a dose-response curve).
The EC50 value should be determined under standard conditions (balanced salt solutions buffered to pH 7.4). For EC50 determinations using isolated membranes, cells and tissues this would be in buffered salt solution at pH 7.4 (e.g. cell culture medium), for example as in Daly et al., Pharmacol. (1993) 46, 91-100), or preferably as in Tilburg et al (J. Med. Chem. (2002) 45, 91-100). The EC50 could also be determined in vivo by measuring adenosine receptor mediated responses in a normal healthy animal, or even in a tissue perfused under normal conditions (i.e. oxygenated blood, or oxygenated isotonic media, also buffered at pH 7.4) in a normal healthy animal.

[3] = system: carageenan-induced oedema in a rat paw; conditions: rats, 20 mg/kg po; cited from earlier work
[4] = 20 mg/kg po; cited from earlier work
[5] = system: U937 human macrophage cells; conditions: cited from earlier work
[6] = system: streptozocin-induced diabetic neuropathy; assay: streptozocin-induced diabetic neuropathy, static allodynia (von Frey hairs); assay type: in vivo, rats
Method: Diabetes was induced by a single i.p. injection of 50 mg/kg streptozocin (Sigma, 50 mg/ml/kg in citrate buffered saline 33 mM pH 4.5). Control animals received single i.p. injection of citrate buffered saline. […] Static allodynia was assessed using von Frey hairs and the paw withdrawal threshold (PWT) in grams (symbols represent the median and vertical bars represent the first and third quartiles) is indicated.

[7] = monkey, multiple oral dosing, 14C-labelled; cited from earlier work
[8] = cynamalogous monkeys, cited from earlier work

For Nc1nc2c(ncn2COCCO)c(=O)[nH]1 [Acyclovir], which “urinary excretion of Acyclovir” value [1] is on record?
Its value is 19%.

With CC(C)[C@H](N)C(=O)OCCOCn1cnc2c(=O)[nH]c(N)nc21 [Valacyclovir] as the molecule, how does the “urinary excretion of Acyclovir” value [1] read?
The value was 63%.

With COc1nc(N)c2ncn([C@@H]3O[C@H](CO)[C@@H](O)[C@H]3O)c2n1 [spongosine, 2-methoxyadenosine] as the molecule, how does the “minimum plasma concentration giving maximal analgesic relief” value [2] read?
The value was 0.06 µM.

What about the EC50 (adenosine A2A receptor) of the same molecule?
Its EC50 is roughly 1000 nM.

And the “inhibition of carageenan-induced inflammation” value [3]?
Its value is 25%.

What about the “reduction in heart rate” value [4] of the same molecule?
Its value is 25%.

And the “reduction in mean blood pressure” value [4]?
Its value is 41%.

What about the “phorbol ester induced TNF alpha release” value [5] of the same molecule?
Its value is “reduce phorbol ester induced TNF alpha release”.

And the “alleviation of allodynia at late time points” value ([6]; 2.1 mg/kg dose cohort at 2, 3 and 4 hours)?
The value was “Significant alleviation of allodynia was still evident”.

What about the “dose dependence of reversal of streptozocin induced static allodynia” value ([6]; 0.6-2.1 mg/kg, po, STZ rats, PWT) of the same molecule?
Its value is “dose dependant effects”.

And the “reversal of static allodynia, all doses” value ([6]; all doses 0.6-2.1 mg/kg po, STZ rats, PWT)?
The value was “effective at reversing allodynia”.

What about the “reversal of static allodynia, top dose” value ([6]; top dose (2.1 mg/kg po), versus naïve non-streptozocin injected controls) of the same molecule?
The value was “fully reversed the allodynia”.

For N=C(N)c1ncn([C@@H]2O[C@H](CO)[C@@H](O)[C@H]2O)n1 [Viramidine], which “drug level in red blood cells compared to Ribavarin” value [7] is on record?
Its value is “only half”.

What about the “drug level in the liver compared to Ribavarin” value [7] of the same molecule?
The value was “three times”.

With Nc1ccn([C@@H]2C[C@@H](O)[C@H](CO)O2)c(=O)n1 [2′-deoxy-β-L-cytidine] as the molecule, how does the “oral bioavailability (of 2′-deoxy-β-L-cytidine)” value ([8]; oral) read?
The value was 18%.

What about the “half-life (po)” value ([8]; po) of the same molecule?
Its value is 2.95 h.
